Results as given in ChEMBL document CHEMBL6109102, “Conjugation with the XJB peptide enhanced neuroprotective effect of honokiol via SIRT3 modulation” (Eur J Med Chem, 2025).
Values belong to the compound of their own block, whether it stands above or below them. Activity calls are given as the source filed them. The calls are words filed in the database; no cut-off is given here.

Tests used:
[1] = tested on: PC-12; assay: (§1) Neuroprotective activity in H2O2-induced rat PC12 cells assessed as reversal of mitochondrial membrane potential reduction by measuring red fluorescence at 5 uM incubated with compound for 24 hrs followed by H2O2 addition and measured after 24 hrs by JC-1 based fluorescence microscopic analysis (reference value: 21.62 a.u.); type: functional
[2] = tested on: SH-SY5Y; assay: Cytotoxicity against human SH-SY5Y cells assessed as inhibition of cell viability at 100 uM incubated for 24 hrs by MTT assay; type: functional, cell-based
[3] = tested on: PC-12; assay: Cytoprotective activity against H2O2-induced cell injury in rat PC12 cells assessed as cell viability at 20 uM incubated for 24 hrs by MTT assay; type: functional, cell-based
[4] = tested on: PC-12; assay: (§2) Neuroprotective activity in H2O2-induced rat PC12 cells assessed as reversal of mitochondrial membrane potential reduction by measuring red fluorescence fold change at 1.5 uM incubated with compound for 24 hrs followed by H2O2 addition and measured after 24 hrs by JC-1 based fluorescence microscopic analysis (reference value: 1.00); type: functional
[5] = tested on: PC-12; assay: Inhibition of apoptosis in H2O2-induced rat PC12 cells assessed as early apoptotic cells at 1.25 uM incubated with compound for 24 hrs followed by H2O2 addition and measured after 24 hrs by Annexin V-FITC/PI staining based flow cytometry analysis (reference value: 1.09%); type: functional; parameters: scale not given: the % may be the effect or the level left
[6] = tested on: PC-12; assay: Inhibition of apoptosis in H2O2-induced rat PC12 cells assessed as early apoptotic cells at 2.5 uM incubated with compound for 24 hrs followed by H2O2 addition and measured after 24 hrs by Annexin V-FITC/PI staining based flow cytometry analysis (reference value: 1.09%); type: functional; parameters: scale not given: the % may be the effect or the level left
[7] = tested on: PC-12; assay: as §2, with “measuring green” for “measuring red”; type: functional
[8] = tested on: PC-12; assay: as §2, with “2.5” for “1.5”; type: functional
[9] = Drug uptake in cytoplasm of rat PC12 cells at 8 uM incubated for 8.5 hrs by HPLC analysis; type: ADME, subcellular; conditions: pc12, 8.5 h
[10] = tested on: PC-12; assay: Inhibition of apoptosis in H2O2-induced rat PC12 cells assessed as necrotic cells at 2.5 uM incubated with compound for 24 hrs followed by H2O2 addition and measured after 24 hrs by Annexin V-FITC/PI staining based flow cytometry analysis (reference value: 4.05%); type: functional; parameters: scale not given: the % may be the effect or the level left
[11] = tested on: PC-12; assay: Inhibition of apoptosis in H2O2-induced rat PC12 cells assessed as late apoptotic cells at 1.25 uM incubated with compound for 24 hrs followed by H2O2 addition and measured after 24 hrs by Annexin V-FITC/PI staining based flow cytometry analysis (reference value: 2.64%); type: functional; parameters: scale not given: the % may be the effect or the level left
[12] = tested on: PC-12; assay: Induction of autophagy in H2O2-induced rat PC12 cells assessed as upregulation of LC3-II/I ratio by Western blot analysis; type: functional, cell-based; conditions: dose 1.25-5 µM
[13] = tested on: PC-12; assay: as §1, with “measuring green” for “measuring red”, “at 1.5” for “at 5”, “value: 4.90” for “value: 21.62”; type: functional
[14] = tested on: PC-12; assay: Induction of autophagy in H2O2-induced rat PC12 cells assessed as downregulation of P62 expression by Western blot analysis; type: functional, cell-based; conditions: dose 1.25-5 µM
[15] = tested on: PC-12; assay: as §1, with “1.25” for “5”; type: functional
[16] = tested on: PC-12; assay: Anti-apoptotic activity in H2O2-induced rat PC12 cells assessed as increase in PARP protein expression at 1.25 to 5 uM by Western blot analysis; type: functional, cell-based; conditions: dose 1.25-5 µM
[17] = tested on: PC-12; assay: as §1, with “2.5” for “5”; type: functional
[18] = Drug uptake in rat PC12 cells at 8 uM incubated for 8.5 hrs by HPLC analysis; type: ADME, cell-based; conditions: pc-12, 8.5 h
[19] = tested on: PC-12; assay: Inhibition of apoptosis in H2O2-induced rat PC12 cells assessed as necrotic cells at 5 uM incubated with compound for 24 hrs followed by H2O2 addition and measured after 24 hrs by Annexin V-FITC/PI staining based flow cytometry analysis (reference value: 4.05%); type: functional; parameters: scale not given: the % may be the effect or the level left
[20] = tested on: PC-12; assay: Cytoprotective activity against H2O2-induced cell injury in rat PC12 cells assessed as cell viability at 10 uM incubated for 24 hrs by MTT assay; type: functional, cell-based
[21] = tested on: PC-12; assay: Inhibition of apoptosis in H2O2-induced rat PC12 cells assessed as viable cells at 2.5 uM incubated with compound for 24 hrs followed by H2O2 addition and measured after 24 hrs by Annexin V-FITC/PI staining based flow cytometry analysis (reference value: 91.4%); type: functional; conditions: read-out: Activity
[22] = tested on: PC-12; assay: Inhibition of apoptosis in H2O2-induced rat PC12 cells assessed as late apoptotic cells at 5 uM incubated with compound for 24 hrs followed by H2O2 addition and measured after 24 hrs by Annexin V-FITC/PI staining based flow cytometry analysis (reference value: 2.64%); type: functional; parameters: scale not given: the % may be the effect or the level left
[23] = tested on: PC-12; assay: Inhibition of apoptosis in H2O2-induced rat PC12 cells assessed as late apoptotic cells at 2.5 uM incubated with compound for 24 hrs followed by H2O2 addition and measured after 24 hrs by Annexin V-FITC/PI staining based flow cytometry analysis (reference value: 2.64%); type: functional; parameters: scale not given: the % may be the effect or the level left
[24] = tested on: PC-12; assay: Inhibition of apoptosis in H2O2-induced rat PC12 cells assessed as necrotic cells at 1.25 uM incubated with compound for 24 hrs followed by H2O2 addition and measured after 24 hrs by Annexin V-FITC/PI staining based flow cytometry analysis (reference value: 4.05%); type: functional; parameters: scale not given: the % may be the effect or the level left
[25] = Drug uptake in mitochondria of rat PC12 cells at 8 uM incubated for 8.5 hrs by HPLC analysis; type: ADME; conditions: pc12, 8.5 h
[26] = tested on: Danio rerio; assay: Anti-alzheimer activity in scopolamine induced zebrafish alzheimer disease model assessed as increase in total swimming distance at 1.25 to 5 uM administered for 6 days post fertilization; type: functional, organism-based; conditions: dose 1.25-5 µM, time 6.0 day
[27] = tested on: PC-12; assay: as §2, with “measuring green” for “measuring red”, “at 5” for “at 1.5”; type: functional
[28] = tested on: PC-12; assay: Inhibition of apoptosis in H2O2-induced rat PC12 cells assessed as early apoptotic cells at 5 uM incubated with compound for 24 hrs followed by H2O2 addition and measured after 24 hrs by Annexin V-FITC/PI staining based flow cytometry analysis (reference value: 1.09%); type: functional; parameters: scale not given: the % may be the effect or the level left
[29] = tested on: PC-12; assay: as §2, with “5” for “1.5”; type: functional
[30] = tested on: PC-12; assay: as §1, with “measuring green” for “measuring red”, “value: 4.90” for “value: 21.62”; type: functional
[31] = tested on: PC-12; assay: Inhibition of apoptosis in H2O2-induced rat PC12 cells assessed as viable cells at 1.25 uM incubated with compound for 24 hrs followed by H2O2 addition and measured after 24 hrs by Annexin V-FITC/PI staining based flow cytometry analysis (reference value: 91.4%); type: functional; conditions: read-out: Activity
[32] = tested on: PC-12; assay: as §1, with “measuring green” for “measuring red”, “at 2.5” for “at 5”, “value: 4.90” for “value: 21.62”; type: functional
[33] = tested on: PC-12; assay: Inhibition of apoptosis in H2O2-induced rat PC12 cells assessed as viable cells at 5 uM incubated with compound for 24 hrs followed by H2O2 addition and measured after 24 hrs by Annexin V-FITC/PI staining based flow cytometry analysis (reference value: 91.4%); type: functional; conditions: read-out: Activity
[34] = tested on: PC-12; assay: as §2, with “measuring green” for “measuring red”, “at 2.5” for “at 1.5”; type: functional
[35] = tested on: PC-12; assay: Cytotoxicity against rat PC12 cells assessed as inhibition of cell viability at 30 uM incubated for 24 hrs by MTT assay; type: functional, cell-based

Drug uptake [9]: Active | Drug uptake [18]: Active | Drug uptake [25]: Active
SMILES: C=CCc1ccc(O)c(-c2ccc(O)c(CC=C)c2)c1 [HONOKIOL]
Activity [1]: 13.31 a.u. | Activity [2]: Active | Activity [3]: inactive | fold change (FC) [4]: 0.09 | Activity [5]: 16.6% | Activity [6]: 15.6% | fold change (FC) [7]: 2.55 | fold change (FC) [8]: 0.32 | Activity [10]: 1.43% | Activity [11]: 4.95% | Activity [12]: inactive | Activity [13]: 6.32 a.u. | Activity [14]: inactive | Activity [15]: 2.16 a.u. | Activity [16]: Active | Activity [17]: 6.59 a.u. | Activity [19]: 1.52% | Activity [20]: Active | viability at 2.5 µM [21]: 79.6% | Activity [22]: 4.84% | Activity [23]: 3.27% | Activity [24]: 1.57% | Activity [26]: Active | fold change (FC) [27]: 1.26 | Activity [28]: 16.5% | fold change (FC) [29]: 0.63 | Activity [30]: 3.97 a.u. | viability at 1.25 µM [31]: 76.9% | Activity [32]: 4.08 a.u. | viability at 5 µM [33]: 77.1% | fold change (FC) [34]: 1.02

SMILES: CC(C)C[C@H](NC(=O)OC(C)(C)C)C(=O)N[C@H](Cc1ccccc1)C(=O)N1CCC[C@H]1C(=O)N[C@H](C(=O)N[C@@H](CCCNC(=O)OCc1ccccc1)C(=O)O)C(C)C
Activity [2]: inactive | Activity [35]: Active

SMILES: C=CCc1ccc(OC)c(-c2ccc(OCCCNC(=O)[C@H](CCCNC(=O)OCc3ccccc3)NC(=O)[C@@H](NC(=O)[C@@H]3CCCN3C(=O)[C@@H](Cc3ccccc3)NC(=O)[C@H](CC(C)C)NC(=O)OC(C)(C)C)C(C)C)c(CC=C)c2)c1
Activity [35]: inactive
